The values that follow are results of earlier work, collected in paper PMC4145847 (ChemMedChem, 2014).

The subject of one data set is Colon HCT-116. The note with it: read-out: GI50 Colon HCT-116; NCI-60 panel; cited from earlier work.
In a further data set the test system is Renal SN12-C. To be noted: read-out: GI50 Renal SN12-C; NCI-60 panel; cited from earlier work.
In a further data set the test system is Ovarian OVCAR-3. The note with it: read-out: GI50 Ovarian OVCAR-3; NCI-60 panel; cited from earlier work.
For another data set, the system named is Lung HOP-62. The note with it: read-out: GI50 Lung HOP-62; NCI-60 panel; cited from earlier work.
A further data set relates to CNS SF-539. The note with it: read-out: GI50 CNS SF-539; NCI-60 panel; cited from earlier work.
For another data set, the system named is Melanoma UACC-62. To be noted: read-out: GI50 Melanoma UACC-62; NCI-60 panel; cited from earlier work.
The next data set concerns NCI 60-cell line panel. The note with it: mean concentration that caused 50% growth inhibition in all 60 cell lines; cited from earlier work.
The subject of the next data set is Bovine brain tubulin. To be noted: 1.0 μM tubulin, 5.0 μM [3H]colchicine, mean ±SD; cited from earlier work.

Molecules are shown by their SMILES. Where only a bound is given, the exact number is not on record here.

One may read the GI50 as the concentration at which growth is held to half of that of the control. For `COc1cc2c(cc1OS(N)(=O)=O)CC[C@@H]1[C@@H]2CC[C@]2(C)[C@@H](OS(N)(=O)=O)CC[C@@H]12` [Compound 1a, 2-methoxyestradiol-3,17-O,O-bis-sulfamate], the GI50 in the data set on Colon HCT-116 was 0.045 µM; in the data set on Renal SN12-C, 0.126 µM; in the data set on Ovarian OVCAR-3, less than 0.01 µM; in the data set with Lung HOP-62, 0.051 µM; with CNS SF-539, 0.036 µM; in the data set on Melanoma UACC-62, less than 0.01 µM. Also, the MGM in the data set on NCI 60-cell line panel was 0.087 µM.
On to `COc1ccc(/C=C\c2cc(OC)c(OC)c(OC)c2)cc1O` [CA-4, combretastatin A-4], for which the “Colchicine binding Inhibition at 5 μM inhibitor” value in the data set with Bovine brain tubulin was 98 ±0.7%.
